Assay results published in paper PMC12441834, “Highly Potent and Subtype-Selective Sperm-Specific Potassium Channel SLO3 Inhibitors Display High Tissue Exposure in the Murine Female Reproductive Tract” (ACS Pharmacology & Translational Science, 2025).
“And” between values parts separate entries of the source, which are not always exact repeats. Equal entries are not always repeated.

What was measured:
CYP2D6 = CYP2D6 (Homo sapiens, UniProt P10635); assay: CYP450 inhibition; type: in vitro ADME; settings: read-out: CYP450 Inhibition, 2D6
CYP3A4 = CYP3A4 (Homo sapiens, UniProt P08684); assay: CYP450 inhibition; type: in vitro ADME; settings: read-out: CYP450 Inhibition, 3A4
[1] = system: human sperm hyperactivated motility; assay: Human sperm motility by CASA; type: cell-based; settings: for inhibition of human sperm hyperactivated motility, incubation: 10 μM during 2 h in capacitation media; for inhibition of human sperm hyperactivated motility, acute / inhibition at 10 µM: 10 μM for 1 min after 2 h capacitation; for effect on progressive motility of human sperm / effect on total motility of human sperm: 10 μM, acute; for inhibition at 10 µM: Homo sapiens, Sperm, read-out: inhibition of human sperm hyperactivated motility, acute
Protocol: Human sperm samples were obtained by masturbation from deidentified patients after 3 to 5 days of abstinence. The Washington University Fertility and Reproductive Medicine Center confirmed that they met normal semen parameters according to the World Health Organization (≥15 million sperm per mL, ≥40% total motility, ≥32% progressive motility). Samples were allowed to liquefy for 1 h at room temperature. Sperm were purified by the swim-up method as previously described. , Briefly, within 2 h of production, sperm were allowed to swim up in noncommercial human tubular fluid medium (HTF; 98 mM NaCl, 4.7 mM KCl, 0.4 mM KH2PO4, 2 mM CaCl2, 0.2 mM MgSO4, 20 mM HEPES, 3 mM glucose, 21 mM lactic acid, 0.3 mM sodium pyruvate, pH adjusted to 7.4 with NaOH, 285 mmol/kg osmolarity measured with a VAPRO Vapor Pressure Osmometer 5600, ELITechGroup, Belgium) for 1 h at 37 °C without CO2.
Human sperm collected by swim-up were incubated in capacitating media (HTF + 5 mg/mL of BSA + 25 mM NaHCO3 for 2 h). After this incubation hyperactivated motility was measured by computer-assisted sperm analysis (CASA) as previously described. Briefly, 3 μL of sperm suspension was loaded in a 20-μm Leja standard count four-chamber slide. Motility was measured with a HTR-CEROS II v.1.7 (Hamilton-Thorne Research). Sperm were classified as hyperactivated if they met the following criteria: curvilinear velocity (VCL) > 150 μm/s, lateral head displacement (ALH) > 7.0 μm, and linearity coefficient (LIN) < 50%. For acute inhibition experiments, 10 μM of our compound of interest was added for 1 min prior to recording motility. For inhibitor incubation experiments, the compound of interest or DMSO was added during the 2 h incubation in capacitating media.

[2] = Multispecies hepatocyte MetID; type: in vitro ADME, mouse; settings: 4 h incubation with hepatocytes, 10 μM
Adenosine A1 = Adenosine A1 (Homo sapiens, UniProt P30542); assay: LeadProfilingScreen radioligand binding
Chain of Adenosine A1 (P30542 whole entry): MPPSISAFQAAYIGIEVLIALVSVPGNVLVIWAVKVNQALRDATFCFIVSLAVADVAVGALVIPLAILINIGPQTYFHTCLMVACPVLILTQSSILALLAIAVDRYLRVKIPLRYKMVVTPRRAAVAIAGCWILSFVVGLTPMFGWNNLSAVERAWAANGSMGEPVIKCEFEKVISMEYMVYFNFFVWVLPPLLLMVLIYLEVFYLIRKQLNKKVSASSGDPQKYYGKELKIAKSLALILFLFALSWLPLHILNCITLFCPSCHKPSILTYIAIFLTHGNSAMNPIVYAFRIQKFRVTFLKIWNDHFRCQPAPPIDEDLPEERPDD

Adrenergic α1A = Adrenergic α1A (Homo sapiens, UniProt P35348); assay: LeadProfilingScreen radioligand binding
Chain of Adrenergic α1A (P35348 whole entry): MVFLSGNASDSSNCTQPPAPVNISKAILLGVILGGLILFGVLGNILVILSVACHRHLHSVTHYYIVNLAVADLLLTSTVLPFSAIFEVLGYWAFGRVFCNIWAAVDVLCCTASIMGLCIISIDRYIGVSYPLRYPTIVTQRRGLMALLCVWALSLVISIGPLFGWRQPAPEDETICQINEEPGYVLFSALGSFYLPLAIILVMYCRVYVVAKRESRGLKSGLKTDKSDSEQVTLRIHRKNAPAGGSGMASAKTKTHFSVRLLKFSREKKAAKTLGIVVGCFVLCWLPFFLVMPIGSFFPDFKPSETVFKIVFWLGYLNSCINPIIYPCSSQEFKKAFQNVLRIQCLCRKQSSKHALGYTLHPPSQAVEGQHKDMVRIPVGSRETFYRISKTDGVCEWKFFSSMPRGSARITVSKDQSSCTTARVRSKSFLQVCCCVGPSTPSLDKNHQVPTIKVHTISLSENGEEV

Adrenergic α2A = Adrenergic α2A (Homo sapiens, UniProt P08913); assay: LeadProfilingScreen radioligand binding
Chain of Adrenergic α2A (P08913 whole entry): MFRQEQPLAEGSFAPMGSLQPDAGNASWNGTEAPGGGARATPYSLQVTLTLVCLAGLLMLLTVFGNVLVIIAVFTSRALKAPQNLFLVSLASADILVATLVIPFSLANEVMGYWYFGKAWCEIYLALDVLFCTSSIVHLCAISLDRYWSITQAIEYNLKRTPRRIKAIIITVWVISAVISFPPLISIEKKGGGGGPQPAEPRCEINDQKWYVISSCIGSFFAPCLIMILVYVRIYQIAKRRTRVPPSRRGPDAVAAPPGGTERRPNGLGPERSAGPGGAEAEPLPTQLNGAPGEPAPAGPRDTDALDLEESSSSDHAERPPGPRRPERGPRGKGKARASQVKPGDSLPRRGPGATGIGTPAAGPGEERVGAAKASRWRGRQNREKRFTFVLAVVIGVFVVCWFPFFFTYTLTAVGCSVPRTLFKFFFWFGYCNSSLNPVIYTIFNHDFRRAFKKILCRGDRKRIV

Adrenergic β1 = Adrenergic β1 (Homo sapiens, UniProt P08588); assay: LeadProfilingScreen radioligand binding
Chain of Adrenergic β1 (P08588 whole entry): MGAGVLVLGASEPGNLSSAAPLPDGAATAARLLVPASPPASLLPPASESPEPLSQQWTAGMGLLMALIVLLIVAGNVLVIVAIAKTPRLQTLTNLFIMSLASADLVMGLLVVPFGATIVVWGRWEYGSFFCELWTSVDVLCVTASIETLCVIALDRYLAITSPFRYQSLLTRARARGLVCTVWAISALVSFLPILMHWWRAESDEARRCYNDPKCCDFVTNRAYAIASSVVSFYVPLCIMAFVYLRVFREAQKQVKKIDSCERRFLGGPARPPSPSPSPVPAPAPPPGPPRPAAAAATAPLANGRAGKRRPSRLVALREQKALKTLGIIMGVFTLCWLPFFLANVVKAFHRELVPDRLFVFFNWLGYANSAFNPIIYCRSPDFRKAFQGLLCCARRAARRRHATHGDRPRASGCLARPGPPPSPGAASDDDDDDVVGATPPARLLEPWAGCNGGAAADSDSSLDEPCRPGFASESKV

Adrenergic β2 = Adrenergic β2 (Homo sapiens, UniProt P07550); assay: LeadProfilingScreen radioligand binding
[3] = system: Calcium Channel L-Type, Benzothiazepine; assay: LeadProfilingScreen radioligand binding; parameters: species or system rat
Calcium Channel N-Type = Calcium Channel N-Type (Rattus norvegicus, UniProt Q02294); assay: LeadProfilingScreen radioligand binding
Dopamine D4.4 = Dopamine D4.4 (Homo sapiens, UniProt P21917); assay: LeadProfilingScreen radioligand binding
[4] = system: GABAA, Flunitrazepam, Central; assay: LeadProfilingScreen radioligand binding; parameters: species or system rat
GABAA, Muscimol, Central = assay: LeadProfilingScreen radioligand binding; parameters: species or system rat
GABAB1A = GABAB1A (Homo sapiens, UniProt Q9UBS5); assay: LeadProfilingScreen radioligand binding
Glutamate, NMDA, Agonism = assay: LeadProfilingScreen radioligand binding; parameters: species or system rat
[5] = system: Glutamate, NMDA, Phencyclidine; assay: LeadProfilingScreen radioligand binding; parameters: species or system rat
Histamine H1 = Histamine H1 (Homo sapiens, UniProt P35367); assay: LeadProfilingScreen radioligand binding
Chain of Histamine H1 (P35367 whole entry): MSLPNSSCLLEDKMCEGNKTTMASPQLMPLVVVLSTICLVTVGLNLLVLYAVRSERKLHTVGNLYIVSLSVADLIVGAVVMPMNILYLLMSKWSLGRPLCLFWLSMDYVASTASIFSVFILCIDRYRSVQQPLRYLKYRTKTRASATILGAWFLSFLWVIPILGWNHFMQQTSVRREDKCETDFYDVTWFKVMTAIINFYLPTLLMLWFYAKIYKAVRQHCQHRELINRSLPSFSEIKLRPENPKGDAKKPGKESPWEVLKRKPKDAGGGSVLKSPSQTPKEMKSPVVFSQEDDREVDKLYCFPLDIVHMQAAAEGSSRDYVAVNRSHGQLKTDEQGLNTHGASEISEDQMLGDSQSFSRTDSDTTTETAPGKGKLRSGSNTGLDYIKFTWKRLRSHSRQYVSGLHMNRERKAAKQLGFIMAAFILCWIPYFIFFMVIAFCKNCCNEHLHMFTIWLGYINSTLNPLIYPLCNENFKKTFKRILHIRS

Histamine H3 = Histamine H3 (Homo sapiens, UniProt Q9Y5N1); assay: LeadProfilingScreen radioligand binding
Chain of Histamine H3 (Q9Y5N1 whole entry): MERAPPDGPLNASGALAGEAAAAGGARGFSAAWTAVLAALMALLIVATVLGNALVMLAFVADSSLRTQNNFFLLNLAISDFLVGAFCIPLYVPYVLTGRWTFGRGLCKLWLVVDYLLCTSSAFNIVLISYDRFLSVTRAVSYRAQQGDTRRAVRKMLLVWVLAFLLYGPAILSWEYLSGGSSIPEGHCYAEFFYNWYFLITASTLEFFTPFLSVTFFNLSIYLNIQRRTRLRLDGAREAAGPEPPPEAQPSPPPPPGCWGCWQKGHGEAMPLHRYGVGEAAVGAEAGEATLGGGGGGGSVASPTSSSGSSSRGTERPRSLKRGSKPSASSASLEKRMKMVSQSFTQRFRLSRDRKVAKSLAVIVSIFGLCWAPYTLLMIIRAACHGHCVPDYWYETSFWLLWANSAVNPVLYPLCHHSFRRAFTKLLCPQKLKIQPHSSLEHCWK

Imidazoline I2, Central = assay: LeadProfilingScreen radioligand binding; parameters: species or system rat
Interleukin IL-1 R1 = Interleukin IL-1 R1 (Homo sapiens, UniProt P14778); assay: LeadProfilingScreen radioligand binding
Chain of Interleukin IL-1 R1 (P14778 18-569): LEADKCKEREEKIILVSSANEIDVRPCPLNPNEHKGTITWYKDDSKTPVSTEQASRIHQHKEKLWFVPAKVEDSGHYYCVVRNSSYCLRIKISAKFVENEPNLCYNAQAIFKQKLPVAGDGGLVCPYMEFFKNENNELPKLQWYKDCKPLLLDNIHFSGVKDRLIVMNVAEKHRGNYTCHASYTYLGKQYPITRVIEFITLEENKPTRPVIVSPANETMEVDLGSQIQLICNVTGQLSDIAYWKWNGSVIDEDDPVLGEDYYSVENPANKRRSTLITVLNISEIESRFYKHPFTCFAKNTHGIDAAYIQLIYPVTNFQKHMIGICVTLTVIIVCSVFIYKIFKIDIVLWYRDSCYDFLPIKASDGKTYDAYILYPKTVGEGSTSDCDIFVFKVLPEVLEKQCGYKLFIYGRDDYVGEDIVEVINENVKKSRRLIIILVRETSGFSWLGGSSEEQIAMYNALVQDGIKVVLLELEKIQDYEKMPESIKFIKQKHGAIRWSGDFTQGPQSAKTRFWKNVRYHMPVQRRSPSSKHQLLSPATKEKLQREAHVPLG

Muscarinic M1 = Muscarinic M1 (Homo sapiens, UniProt P11229); assay: LeadProfilingScreen radioligand binding
Muscarinic M2 = Muscarinic M2 (Homo sapiens, UniProt P08172); assay: LeadProfilingScreen radioligand binding
Neuropeptide Y Y1 = Neuropeptide Y Y1 (Homo sapiens, UniProt P25929); assay: LeadProfilingScreen radioligand binding
Potassium Channel [KATP] = Potassium Channel [KATP] (Cricetus cricetus, UniProt Q09427); assay: LeadProfilingScreen radioligand binding; parameters: species or system hamster
Protocol: Both lead compounds, VU6047606 and VU6032735, were subjected to radioligand binding assays in a Eurofins LeadProfilingScreen SafetyScreen Panel to detect potential adverse activity, relative selectivity, and off-target activity. Compounds were screened at 10 μM and percent inhibition was monitored across 68 potential off-target G protein-coupled receptors, ion channels, nuclear hormone receptors, and transporters. ,

Prostanoid EP4 = Prostanoid EP4 (Homo sapiens, UniProt P35408); assay: LeadProfilingScreen radioligand binding
Chain of Prostanoid EP4 (P35408 whole entry): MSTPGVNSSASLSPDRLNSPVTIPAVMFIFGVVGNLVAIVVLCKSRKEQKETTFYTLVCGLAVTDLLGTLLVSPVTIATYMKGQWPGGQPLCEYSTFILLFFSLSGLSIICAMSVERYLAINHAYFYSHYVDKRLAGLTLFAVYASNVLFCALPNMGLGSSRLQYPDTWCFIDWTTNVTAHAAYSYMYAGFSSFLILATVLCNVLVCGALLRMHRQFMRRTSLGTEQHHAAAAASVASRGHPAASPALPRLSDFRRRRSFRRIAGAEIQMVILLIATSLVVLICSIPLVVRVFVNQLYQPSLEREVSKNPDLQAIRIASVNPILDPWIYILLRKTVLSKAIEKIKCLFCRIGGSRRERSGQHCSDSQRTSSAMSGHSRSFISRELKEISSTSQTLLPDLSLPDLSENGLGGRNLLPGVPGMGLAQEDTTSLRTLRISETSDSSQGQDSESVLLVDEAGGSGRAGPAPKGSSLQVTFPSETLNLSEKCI

Purinergic P2X = assay: LeadProfilingScreen radioligand binding; parameters: species or system rat
[6] = molecular target: Serotonin (5-Hydroxytryptamine) 5-HT2B (Homo sapiens, UniProt P41595); assay: LeadProfilingScreen radioligand binding
Chain of Serotonin (5-Hydroxytryptamine) 5-HT2B (P41595 whole entry): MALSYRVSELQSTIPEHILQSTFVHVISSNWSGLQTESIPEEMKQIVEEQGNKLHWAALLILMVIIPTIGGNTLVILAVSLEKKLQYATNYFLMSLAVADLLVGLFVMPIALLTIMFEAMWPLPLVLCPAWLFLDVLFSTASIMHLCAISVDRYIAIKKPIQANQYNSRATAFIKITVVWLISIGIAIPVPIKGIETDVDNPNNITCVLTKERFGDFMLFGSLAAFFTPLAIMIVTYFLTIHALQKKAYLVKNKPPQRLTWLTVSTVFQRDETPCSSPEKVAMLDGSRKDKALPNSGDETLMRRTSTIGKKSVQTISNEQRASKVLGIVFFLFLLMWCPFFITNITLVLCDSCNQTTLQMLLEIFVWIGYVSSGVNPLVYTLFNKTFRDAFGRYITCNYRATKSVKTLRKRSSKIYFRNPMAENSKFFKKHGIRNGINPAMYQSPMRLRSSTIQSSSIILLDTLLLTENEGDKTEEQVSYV

Tachykinin NK1 = Tachykinin NK1 (Homo sapiens, UniProt P25103); assay: LeadProfilingScreen radioligand binding
Chain of Tachykinin NK1 (P25103 whole entry): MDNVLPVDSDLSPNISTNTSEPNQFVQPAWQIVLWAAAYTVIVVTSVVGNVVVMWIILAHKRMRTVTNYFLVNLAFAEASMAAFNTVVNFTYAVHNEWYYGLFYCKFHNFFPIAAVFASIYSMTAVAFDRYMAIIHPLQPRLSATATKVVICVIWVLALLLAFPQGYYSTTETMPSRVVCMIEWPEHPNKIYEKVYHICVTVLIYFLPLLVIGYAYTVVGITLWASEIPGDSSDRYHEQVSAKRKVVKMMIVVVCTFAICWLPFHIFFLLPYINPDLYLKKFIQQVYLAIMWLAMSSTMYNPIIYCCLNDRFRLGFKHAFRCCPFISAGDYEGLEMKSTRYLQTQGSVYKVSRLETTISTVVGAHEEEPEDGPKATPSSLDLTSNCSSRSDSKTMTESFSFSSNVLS

SMILES | IC50 (CYP2D6) [µM] | IC50 (CYP3A4) [µM] | inhibition of human sperm hyperactivated motility, incubation [1] [%] | inhibition of human sperm hyperactivated motility, acute [1] [%] | effect on progressive motility of human sperm [1] | effect on total motility of human sperm [1] | inhibition at 10 µM [1] [%] | % of Parent Related Material, Mouse [2] | inhibition at 10 µM (Adenosine A1) [%] | inhibition at 10 µM (Adrenergic α1A) [%] | inhibition at 10 µM (Adrenergic α2A) [%] | inhibition at 10 µM (Adrenergic β1) [%] | inhibition at 10 µM (Adrenergic β2) [%] | % inhibition at 10 μM [3] [%] | inhibition at 10 µM (Calcium Channel N-Type) [%] | inhibition at 10 µM (Dopamine D4.4) [%] | % inhibition at 10 μM [4] [%] | % inhibition at 10 μM (GABAA, Muscimol, Central) [%] | inhibition at 10 µM (GABAB1A) [%] | % inhibition at 10 μM (Glutamate, NMDA, Agonism) [%] | other results
O=C(c1ccc(OCc2ccc(OC(F)(F)F)cc2)cc1)N1CCN(c2ccc(C(F)(F)F)cn2)CC1 [VU6032735] | > 30 | > 30 | 50 | > 70 | without changing | without changing | 76 | > 98% | 12 | -1 | -3 | 8 | 5 | 67 | 2 | -5 | 5 | 0 | 31 | -8 | % inhibition at 10 μM [5]: 8%; inhibition at 10 µM (Histamine H1): 14%; inhibition at 10 µM (Histamine H3): -16%; % inhibition at 10 μM (Imidazoline I2, Central): -2%; inhibition at 10 µM (Interleukin IL-1 R1): -7%; inhibition at 10 µM (Muscarinic M1): -8%; inhibition at 10 µM (Muscarinic M2): -10%; inhibition at 10 µM (Neuropeptide Y Y1): -1%; inhibition at 10 µM (Potassium Channel [KATP]): -7%; inhibition at 10 µM (Prostanoid EP4): -2%; % inhibition at 10 μM (Purinergic P2X): 1%; inhibition at 10 µM [6]: -6%; inhibition at 10 µM (Tachykinin NK1): 7%
Cc1cc(Cl)cc2sc(O[C@H]3CCN(C(=O)CCCS(=O)(=O)c4cccc(Br)c4)C[C@H]3F)nc12 [VU6047606] | > 30 | > 30 | 61 | > 70 | without changing | without changing | 71 | 84.99% and > 82% | 5 | 4 | -4 | 11 | 5 | 49 | -1 | -8 | 11 | 1 | 12 | -18 | % inhibition at 10 μM [5]: 6%; inhibition at 10 µM (Histamine H1): 11%; inhibition at 10 µM (Histamine H3): 11%; % inhibition at 10 μM (Imidazoline I2, Central): 9%; inhibition at 10 µM (Interleukin IL-1 R1): 1%; inhibition at 10 µM (Muscarinic M1): 6%; inhibition at 10 µM (Muscarinic M2): -6%; inhibition at 10 µM (Neuropeptide Y Y1): -16%; inhibition at 10 µM (Potassium Channel [KATP]): -5%; inhibition at 10 µM (Prostanoid EP4): 23%; % inhibition at 10 μM (Purinergic P2X): 1%; inhibition at 10 µM [6]: 18%; inhibition at 10 µM (Tachykinin NK1): 8%
